Calls of active or inactive are those of the source. The rule behind the calls is not given here.
Tests used:
[1] = test system: LS174T; assay: Downregulation of cyclin D1 expression in human LS174T cells at 2.5 to 20 uM incubated for 24 hrs by Western blot analysis; type: functional, cell-based; details: dose 2.5-20 µM
[2] = test system: LS174T; assay: Induction of cell cycle arrest in human LS174T cells assessed as downregulation of cyclin E expression measured after 24 hrs by Western blot analysis; type: functional, cell-based; details: dose 5-20 µM, DDE = dose-dependent effect
[3] = test system: LS174T; assay: Induction of cell cycle arrest in human LS174T cells assessed as accumulation of cells at sub-G1 phase at 5 uM measured after 24 hrs by RNase A/propidium iodide staining based flow cytometric analysis (reference value: 1.3 %); type: functional
[4] = test system: LS174T; assay: Downregulation of MMP-7 expression in human LS174T cells at up to 8 uM incubated for 24 hrs by Western blot analysis; type: functional, cell-based
[5] = test system: Mus musculus; assay: Downregulation of N-cadherin expression in tumor of BALB/c mouse xenografted with human LS174T cells at 10 to 30 mg/kg, ip administered 3 times per week for 21 days by immunohistochemical based analysis; type: functional, organism-based; details: dose 10-30 mg/kg, time 21.0 day
[6] = test system: LS174T; assay: Induction of cell cycle arrest in human LS174T cells assessed as accumulation of cells at G0/G1 phase at 10 uM measured after 24 hrs by RNase A/propidium iodide staining based flow cytometric analysis (reference value: 71.7 %); type: functional
[7] = test system: LS174T; assay: Induction of cell cycle arrest in human LS174T cells assessed as accumulation of cells at G2/M phase at 20 uM measured at 36 hrs by RNase A/propidium iodide staining based flow cytometric analysis (reference value: 12.9 %); type: functional
[8] = test system: LS174T; assay: Induction of cell cycle arrest in human LS174T cells assessed as accumulation of cells at G2/M phase at 10 uM measured after 24 hrs by RNase A/propidium iodide staining based flow cytometric analysis (reference value: 12.2 %); type: functional
[9] = test system: LS174T; assay: Downregulation of survivin expression in human LS174T cells at 2.5 to 20 uM incubated for 24 hrs by Western blot analysis; type: functional, cell-based; details: dose 2.5-20 µM
[10] = test system: Mus musculus; assay: Downregulation of cyclin D1 expression in tumor of BALB/c mouse xenografted with human LS174T cells at 10 to 30 mg/kg, ip administered 3 times per week for 21 days by immunohistochemical based analysis; type: functional, organism-based; details: dose 10-30 mg/kg, time 21.0 day
[11] = test system: LS174T; assay: Induction of cell cycle arrest in human LS174T cells assessed as accumulation of cells at S phase at 20 uM measured at 24 hrs by RNase A/propidium iodide staining based flow cytometric analysis (reference value: 11.4 %); type: functional
[12] = test system: LS174T; assay: Inhibition of cell invasion in human LS174T cells incubated for 24 hrs by transwell assay; type: functional, cell-based; details: dose 2-8 µM, DDE = dose-dependent effect
[13] = test system: LS174T; assay: Induction of cell cycle arrest in human LS174T cells assessed as accumulation of cells at S phase at 5 uM measured after 24 hrs by RNase A/propidium iodide staining based flow cytometric analysis (reference value: 14.5 %); type: functional
[14] = test system: LS174T; assay: Induction of apoptosis in human LS174T cells assessed as increase in early apoptotic cells at 20 to 40 uM measured after 48 hrs by AnnexinV-FITC/PI staining based flowcytometry analysis; type: functional, cell-based; details: dose 20-40 µM
[15] = test system: LS174T; assay: Induction of cell cycle arrest in human LS174T cells assessed as downregulation of cyclin D1 expression measured after 24 hrs by Western blot analysis; type: functional, cell-based; details: dose 5-20 µM, DDE = dose-dependent effect
[16] = test system: LS174T; assay: Antitumor activity against human LS174T cells xenografted in BALB/c nude mouse assessed as reduction in tumor volume at 10 mg/kg, ip administered 3 times per week for 21 days by electronic caliper method; type: functional; parameters: scale not given: the % may be the effect or the level left; details: time 21 day
[17] = Inhibition of Wnt/beta-catenin transactivation signalling in HEK293 cells transfected with renilla luciferase and TOPFlash reporter gene incubated for 24 hrs by dual-luciferase assay; type: cell-based; details: Homo sapiens, HEK293, 24 h
[18] = test system: LS174T; assay: Induction of cell cycle arrest in human LS174T cells assessed as upregulation of p21 expression measured after 24 hrs by Western blot analysis; type: functional, cell-based; details: dose 5-20 µM, DDE = dose-dependent effect
[19] = test system: Mus musculus; assay: Downregulation of c-Myc expression in tumor of BALB/c mouse xenografted with human LS174T cells at 10 to 30 mg/kg, ip administered 3 times per week for 21 days by immunohistochemical based analysis; type: functional, organism-based; details: dose 10-30 mg/kg, time 21.0 day
[20] = test system: LS174T; assay: Induction of cell cycle arrest in human LS174T cells assessed as accumulation of cells at sub-G1 phase at 20 uM measured at 36 hrs by RNase A/propidium iodide staining based flow cytometric analysis (reference value: 0.7 %); type: functional
[21] = test system: LS174T; assay: Induction of cell cycle arrest in human LS174T cells assessed as accumulation of cells at S phase at 10 uM measured after 24 hrs by RNase A/propidium iodide staining based flow cytometric analysis (reference value: 14.5 %); type: functional
[22] = test system: LS174T; assay: Induction of apoptosis in human LS174T cells assessed as total cell death at 40 uM measured after 48 hrs by AnnexinV-FITC/PI staining based flowcytometry analysis relative to control; type: functional
[23] = test system: LS174T; assay: Downregulation of N-cadherin expression in human LS174T cells at up to 8 uM incubated for 24 hrs by Western blot analysis; type: functional, cell-based
[24] = test system: LS174T; assay: Antiproliferative activity against human LS174T cells harboring beta-catenin mutant assessed as reduction in cell viability measured after 72 hrs by SRB assay; type: functional, cell-based
[25] = test system: LS174T; assay: Antitumor activity against human LS174T cells xenografted in BALB/c nude mouse assessed as reduction in tumor volume at 30 mg/kg, ip administered 3 times per week for 21 days by electronic caliper method; type: functional; parameters: scale not given: the % may be the effect or the level left; details: time 21 day
[26] = test system: LS174T; assay: Induction of cell cycle arrest in human LS174T cells assessed as accumulation of cells at S phase at 20 uM measured at 36 hrs by RNase A/propidium iodide staining based flow cytometric analysis (reference value: 11.4 %); type: functional
[27] = test system: LS174T; assay: Downregulation of beta-catenin expression in human LS174T cells at 2.5 to 20 uM incubated for 24 hrs by Western blot analysis; type: functional, cell-based; details: dose 2.5-20 µM
[28] = test system: LS174T; assay: Induction of cell cycle arrest in human LS174T cells assessed as accumulation of cells at G2/M phase at 20 uM measured at 48 hrs by RNase A/propidium iodide staining based flow cytometric analysis (reference value: 12.9 %); type: functional
[29] = test system: LS174T; assay: Induction of cell cycle arrest in human LS174T cells assessed as accumulation of cells at sub-G1 phase at 20 uM measured at 48 hrs by RNase A/propidium iodide staining based flow cytometric analysis (reference value: 0.7 %); type: functional
[30] = test system: LS174T; assay: Downregulation of c-Myc expression in human LS174T cells at 2.5 to 20 uM incubated for 24 hrs by Western blot analysis; type: functional, cell-based; details: dose 2.5-20 µM
[31] = test system: LS174T; assay: Induction of apoptosis in human LS174T cells assessed as upregulation of cleaved caspase-9 expression measured after 48 hrs by Western blot analysis; type: functional, cell-based; details: dose 20-40 µM, DDE = dose-dependent effect
[32] = test system: LS174T; assay: Induction of cell cycle arrest in human LS174T cells assessed as accumulation of cells at G0/G1 phase at 5 uM measured after 24 hrs by RNase A/propidium iodide staining based flow cytometric analysis (reference value: 71.7 %); type: functional
[33] = test system: LS174T; assay: Induction of cell cycle arrest in human LS174T cells assessed as accumulation of cells at G2/M phase at 5 uM measured after 24 hrs by RNase A/propidium iodide staining based flow cytometric analysis (reference value: 12.2 %); type: functional

Structure (SMILES): O=c1c2ccccc2nc2n1CCc1c-2[nH]c2ccccc12 [RUTAECARPINE]
- Activity [1]: Active
- Activity [2]: Dde
- Activity [3]: 1.4%
- Activity [4]: Active
- Activity [5]: Active
- Activity [6]: 81.6%
- Activity [7]: 4.5%
- Activity [8]: 9.6%
- Activity [9]: Active
- Activity [10]: Active
- Activity [11]: 2.2%
- inhibition [12]: Dde
- Activity [13]: 10.7%
- Activity [14]: Active
- Activity [15]: Dde
- Activity [16]: 25.9%
- IC50 [17]: 4.3 µM
- Activity [18]: Dde
- Activity [19]: Active
- Activity [20]: 6.1%
- Activity [21]: 7.2%
- Activity [22]: 85.4%
- Activity [23]: Active
- IC50 [24]: 6.1 µM
- Activity [25]: 54.6%
- Activity [26]: 2.1%
- Activity [27]: Active
- Activity [28]: 4.4%
- Activity [29]: 13.9%
- Activity [30]: Active
- Activity [31]: Dde
- Activity [32]: 75.8%
- Activity [33]: 11.8%

Source: ChEMBL document CHEMBL5137022, “Antitumor Activity of Rutaecarpine in Human Colorectal Cancer Cells by Suppression of Wnt/β-Catenin Signaling” (J Nat Prod, 2022)
